From ChEMBL document CHEMBL1201862, “PubChem BioAssay data set” (2004)
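Interpolation was linear, between the two tested concentrations surrounding the appropriate level; five concentrations were tested over 48 hours in 96-well plates. At the GI50, growth is halved.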 Activity calls are given as the source filed them. Cut-off read from the data, not from the text of the source: active = GI50 up to about 1.1 µM and inactive = higher.

How the values were obtained:
Experiment in all cases: inhibition of tumour cell growth, NCI panel, 48 h
EKVX = system: EKVX
MCF7 = system: MCF7
K562 = system: K562
SF-539 = system: SF-539
OVCAR-5 = system: OVCAR-5
SNB-75 = system: SNB-75
OVCAR-8 = system: OVCAR-8
HCT-116 = system: HCT-116
HL-60 = system: HL-60
SW-620 = system: SW-620
RPMI-8226 = system: RPMI-8226
COLO 205 = system: COLO 205
MDA-MB-231 = system: MDA-MB-231
SK-OV-3 = system: SK-OV-3
SK-MEL-5 = system: SK-MEL-5
Malme-3M = system: Malme-3M
786-0 = system: 786-0
IGROV-1 = system: IGROV-1
NCI/ADR-RES = system: NCI/ADR-RES
SNB-19 = system: SNB-19

Structure (SMILES) | GI50 (EKVX) | GI50 (MCF7) | GI50 (K562) | GI50 (SF-539) | GI50 (OVCAR-5) | GI50 (SNB-75) | GI50 (OVCAR-8) | GI50 (HCT-116) | GI50 (HL-60) | GI50 (SW-620) | GI50 (RPMI-8226) | GI50 (COLO 205) | GI50 (MDA-MB-231) | GI50 (SK-OV-3) | GI50 (SK-MEL-5) | GI50 (Malme-3M) | GI50 (786-0) | GI50 (IGROV-1) | GI50 (NCI/ADR-RES) | GI50 (SNB-19)
CC/C(Cl)=N\OC(=O)Nc1ccc(F)c(Cl)c1 | 18.2 µM (inactive) | 7.1 µM (inactive) | 1.84 µM (inactive) | 19.8 µM (inactive) | 16.5 µM (inactive) | 12.2 µM (inactive) | 17.7 µM (inactive) | 14 µM (inactive) | 1.83 µM (inactive) | 2.55 µM (inactive) | 3.35 µM (inactive) | 2.82 µM (inactive) | 20 µM (inactive) | 18.5 µM (inactive) | 15.6 µM (inactive) | 4.66 µM (inactive) | 7.1 µM (inactive) | 16.3 µM (inactive) | 19.5 µM (inactive) | 14.4 µM (inactive)
COc1ccc(/C(Cl)=C(\C=O)c2ccc([N+](=O)[O-])cc2)cc1OC | > 33.3 µM (inactive) | 3.72 µM (inactive) | 3.62 µM (inactive) | 12.5 µM (inactive) | 5.13 µM (inactive) | 3.62 µM (inactive) | 7.64 µM (inactive) | 6.15 µM (inactive) | 2.7 µM (inactive) | 6.12 µM (inactive) | 2.87 µM (inactive) | 14.2 µM (inactive) | 13.8 µM (inactive) | 26.7 µM (inactive) | 8.2 µM (inactive) | 14.6 µM (inactive) | 4.29 µM (inactive) | 17.3 µM (inactive) | 6.38 µM (inactive) | > 46.5 µM (inactive)
O=C(O)c1ccc(CI)cc1 | 19.5 µM (inactive) | 14.3 µM (inactive) | 23.7 µM (inactive) | 18 µM (inactive) | 18.7 µM (inactive) | 33.2 µM (inactive) | 21.9 µM (inactive) | 14.5 µM (inactive) | 20.8 µM (inactive) | 14.6 µM (inactive) | 20.8 µM (inactive) | 15.4 µM (inactive) | 21.8 µM (inactive) | 25.4 µM (inactive) | 17 µM (inactive) | 10.6 µM (inactive) | 3.24 µM (inactive) | 21.1 µM (inactive) | 16.1 µM (inactive) | 13.8 µM (inactive)
COc1ccc(/N=C/C=C/Nc2ccc(OC)cc2)cc1 | 15.7 µM (inactive) | 4.75 µM (inactive) | 8.13 µM (inactive) | 9.64 µM (inactive) | 15.5 µM (inactive) | 16.9 µM (inactive) | 3.3 µM (inactive) | 3.66 µM (inactive) | 2.87 µM (inactive) | 2.69 µM (inactive) | 8.81 µM (inactive) | 3.99 µM (inactive) | 2.38 µM (inactive) | 19.7 µM (inactive) | 4.66 µM (inactive) | 11.4 µM (inactive) | 4 µM (inactive) | 11.6 µM (inactive) | 6.95 µM (inactive) | 3.43 µM (inactive)
Clc1ccc(CCNC2(c3cc4ccccc4s3)CCCCC2)cc1Cl | 26.1 µM (inactive) | 17 µM (inactive) | 15.5 µM (inactive) | 16.9 µM (inactive) | 19.5 µM (inactive) | 14.2 µM (inactive) | 31.9 µM (inactive) | 12.4 µM (inactive) | 16.7 µM (inactive) | 34.7 µM (inactive) | 11.5 µM (inactive) | 17.8 µM (inactive) | 21.1 µM (inactive) | 29.6 µM (inactive) | 15.6 µM (inactive) | 19.5 µM (inactive) | 18.1 µM (inactive) | 40.8 µM (inactive) | 24 µM (inactive) | 30.5 µM (inactive)
CCCC(=O)Nc1cc(/C=C/C(=O)N2CC(CCl)c3c2cc(O)c2[nH]cc(C)c32)n(C)c1 (stereo not drawn) | < 2.5e-05 µM (active) | < 2.5e-05 µM (active) | 3.79e-05 µM (active) | < 2.5e-05 µM (active) | < 2.5e-05 µM (active) | < 2.5e-05 µM (active) | < 2.5e-05 µM (active) | < 2.5e-05 µM (active) | < 2.5e-05 µM (active) | < 2.5e-05 µM (active) | 5.49e-05 µM (active) | < 2.5e-05 µM (active) | < 2.5e-05 µM (active) | < 2.5e-05 µM (active) | < 2.5e-05 µM (active) | < 2.5e-05 µM (active) | < 2.5e-05 µM (active) | < 2.5e-05 µM (active) | 9.64e-05 µM (active) | < 2.5e-05 µM (active)
CSCCC(NCc1c(O)ccc2c(-c3ccccc3)cc(=O)oc12)C(=O)O (stereo not drawn) | > 100 µM (inactive) | > 100 µM (inactive) | > 100 µM (inactive) | > 100 µM (inactive) | > 100 µM (inactive) | > 100 µM (inactive) | > 100 µM (inactive) | > 100 µM (inactive) | > 100 µM (inactive) | > 100 µM (inactive) | > 100 µM (inactive) | > 100 µM (inactive) | > 100 µM (inactive) | > 100 µM (inactive) | > 100 µM (inactive) | > 100 µM (inactive) | > 100 µM (inactive) | > 100 µM (inactive) | > 100 µM (inactive) | > 100 µM (inactive)
CCOC(=O)C1=NN(c2ccc(C)cc2)C2(c3ccccc3)C=C(c3ccccc3)N(C)CCN12 (stereo not drawn) | > 100 µM (inactive) | > 100 µM (inactive) | 71 µM (inactive) | > 100 µM (inactive) | > 100 µM (inactive) | > 100 µM (inactive) | > 100 µM (inactive) | > 100 µM (inactive) | 30.7 µM (inactive) | > 100 µM (inactive) | 29 µM (inactive) | > 100 µM (inactive) | > 100 µM (inactive) | > 100 µM (inactive) | > 100 µM (inactive) | > 100 µM (inactive) | > 100 µM (inactive) | > 100 µM (inactive) | > 100 µM (inactive) | > 100 µM (inactive)
Cc1ccc(S(=O)(=O)NC(CCC(=O)NN)C(=O)NN)cc1 (stereo not drawn) | > 100 µM (inactive) | > 100 µM (inactive) | > 100 µM (inactive) | > 100 µM (inactive) | > 100 µM (inactive) | > 100 µM (inactive) | > 100 µM (inactive) | > 100 µM (inactive) | > 100 µM (inactive) | > 100 µM (inactive) | > 100 µM (inactive) | > 100 µM (inactive) | > 100 µM (inactive) | > 100 µM (inactive) | > 100 µM (inactive) | > 100 µM (inactive) | > 100 µM (inactive) | > 100 µM (inactive) | > 100 µM (inactive) | > 100 µM (inactive)
c1c[nH]c(CN2CCOCC2)n1 | > 100 µM (inactive) | > 100 µM (inactive) | > 100 µM (inactive) | > 100 µM (inactive) | > 100 µM (inactive) | > 100 µM (inactive) | > 100 µM (inactive) | > 100 µM (inactive) | > 100 µM (inactive) | > 100 µM (inactive) | > 100 µM (inactive) | > 100 µM (inactive) | > 100 µM (inactive) | > 100 µM (inactive) | > 100 µM (inactive) | > 100 µM (inactive) | > 100 µM (inactive) | > 100 µM (inactive) | > 100 µM (inactive) | > 100 µM (inactive)
Cc1nc2ccccc2n1CCc1nc2ccccc2s1 | 7.23 µM (inactive) | 16.6 µM (inactive) | 11 µM (inactive) | 35.2 µM (inactive) | > 100 µM (inactive) | 78 µM (inactive) | 41.3 µM (inactive) | 25.9 µM (inactive) | 14.3 µM (inactive) | 68.9 µM (inactive) | 15 µM (inactive) | 26.9 µM (inactive) | 39.6 µM (inactive) | > 100 µM (inactive) | 2.88 µM (inactive) | 17.3 µM (inactive) | 42.7 µM (inactive) | > 100 µM (inactive) | 40.6 µM (inactive) | > 100 µM (inactive)
Oc1cc(O)c2c(c1)OC(c1ccc(O)c(O)c1)C(OC1(c3cc(O)c(O)c(O)c3)Oc3cc(O)cc(O)c3C(O)C1O)C2 (stereo not drawn) | 15.6 µM (inactive) | 19.6 µM (inactive) | 21.1 µM (inactive) | 32.1 µM (inactive) | 21.8 µM (inactive) | 26.4 µM (inactive) | 26 µM (inactive) | 24.6 µM (inactive) | 21.7 µM (inactive) | 24.8 µM (inactive) | 22.1 µM (inactive) | 31.8 µM (inactive) | 19.7 µM (inactive) | > 65.5 µM (inactive) | 18.3 µM (inactive) | 87.9 µM (inactive) | 25.7 µM (inactive) | 30.7 µM (inactive) | 30.2 µM (inactive) | 55.1 µM (inactive)
CSc1nc(SC)c2ncn(C3CC(Oc4ccc(C)cc4)C(COc4ccc(C)cc4)O3)c2n1 (stereo not drawn) | > 100 µM (inactive) | > 100 µM (inactive) | – | > 100 µM (inactive) | > 100 µM (inactive) | 26.5 µM (inactive) | > 100 µM (inactive) | > 100 µM (inactive) | > 100 µM (inactive) | > 100 µM (inactive) | 8.71 µM (inactive) | > 100 µM (inactive) | > 100 µM (inactive) | > 100 µM (inactive) | > 100 µM (inactive) | > 100 µM (inactive) | > 100 µM (inactive) | > 100 µM (inactive) | > 100 µM (inactive) | > 100 µM (inactive)
Cc1nnc(CC#N)n1NC(=O)CC#N | > 100 µM (inactive) | > 100 µM (inactive) | > 100 µM (inactive) | > 100 µM (inactive) | > 100 µM (inactive) | > 100 µM (inactive) | > 100 µM (inactive) | > 100 µM (inactive) | > 100 µM (inactive) | > 100 µM (inactive) | – | > 100 µM (inactive) | > 100 µM (inactive) | > 100 µM (inactive) | > 100 µM (inactive) | > 100 µM (inactive) | > 100 µM (inactive) | > 100 µM (inactive) | > 100 µM (inactive) | > 100 µM (inactive)
